Results taken from ChEMBL document CHEMBL5512608, “Therapeutic potential of targeting polo-like kinase 4” (Eur J Med Chem, 2024).

Experiments:
[1] = target: T1, Serine/threonine-protein kinase PLK4 (Homo sapiens, UniProt O00444); test: Inhibition of PLK4 (unknown origin)
T1 sequence (O00444 whole entry): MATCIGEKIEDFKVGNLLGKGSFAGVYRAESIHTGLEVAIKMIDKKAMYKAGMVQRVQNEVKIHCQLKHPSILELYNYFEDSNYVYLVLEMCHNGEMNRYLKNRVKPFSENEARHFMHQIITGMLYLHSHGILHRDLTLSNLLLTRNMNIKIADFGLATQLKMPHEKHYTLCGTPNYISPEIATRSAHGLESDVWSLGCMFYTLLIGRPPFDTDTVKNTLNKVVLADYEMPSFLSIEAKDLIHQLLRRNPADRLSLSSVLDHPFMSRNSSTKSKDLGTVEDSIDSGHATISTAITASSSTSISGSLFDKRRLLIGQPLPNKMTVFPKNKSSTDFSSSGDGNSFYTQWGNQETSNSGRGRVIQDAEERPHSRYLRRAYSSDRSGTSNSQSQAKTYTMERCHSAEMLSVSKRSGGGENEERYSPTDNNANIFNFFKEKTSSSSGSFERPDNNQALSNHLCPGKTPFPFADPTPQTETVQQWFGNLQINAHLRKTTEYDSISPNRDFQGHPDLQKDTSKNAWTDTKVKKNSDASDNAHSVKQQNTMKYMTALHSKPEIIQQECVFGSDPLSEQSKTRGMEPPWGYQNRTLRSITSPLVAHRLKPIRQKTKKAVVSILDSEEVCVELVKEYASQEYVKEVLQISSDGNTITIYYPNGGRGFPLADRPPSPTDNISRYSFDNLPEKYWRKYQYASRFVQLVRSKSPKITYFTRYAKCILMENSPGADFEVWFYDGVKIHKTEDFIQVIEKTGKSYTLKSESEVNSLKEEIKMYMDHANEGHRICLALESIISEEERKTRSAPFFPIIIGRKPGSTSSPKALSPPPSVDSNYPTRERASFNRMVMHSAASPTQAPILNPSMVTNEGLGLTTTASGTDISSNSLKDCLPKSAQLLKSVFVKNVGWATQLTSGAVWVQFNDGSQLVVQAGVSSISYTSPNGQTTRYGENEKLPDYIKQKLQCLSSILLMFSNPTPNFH

[2] = Antiproliferative activity against human TNBC cells assessed as reduction in cell viability; assay type: functional, cell-based; conditions: Breast carcinoma cell
[3] = system: MDA-MB-468; test: Antitumor activity against human MDA-MB-468 cells xenografted in nude mouse assessed as tumor growth inhibition at 20 mg/kg, po relative to control; assay type: functional; conditions: read-out: TGI
[4] = Selectivity ratio of Ki for PLK4 (unknown origin) to Ki for AURORA-A (unknown origin)
[5] = system: HCT-116; test: Antiproliferative activity against human HCT-116 cells assessed as reduction in cell viability measured after 72 hrs by AlamarBlue assay; assay type: functional, cell-based; conditions: HCT-116, 72 h
[6] = system: A2780; test: Antiproliferative activity against human A2780 cells assessed as reduction in cell viability measured after 72 hrs by AlamarBlue assay; assay type: functional, cell-based; conditions: A2780, 72 h
[7] = system: NCI-H1299; test: Antiproliferative activity against human NCI-H1299 cells assessed as reduction in cell viability measured after 72 hrs by AlamarBlue assay; assay type: functional, cell-based; conditions: NCI-H1299, 72 h
[8] = system: MDA-MB-231; test: Antiproliferative activity against human MDA-MB-231 cells assessed as reduction in cell viability measured after 72 hrs by AlamarBlue assay; assay type: functional, cell-based; conditions: MDA-MB-231, 72 h
[9] = system: U-87 MG; test: Antiproliferative activity against human U-87 MG cells assessed as reduction in cell viability measured after 72 hrs by AlamarBlue assay; assay type: functional, cell-based, U-87MG ATCC
[10] = target: T1, Serine/threonine-protein kinase PLK4; test: Binding affinity to PLK4 (unknown origin) assessed as inhibition constant
[11] = target: Serine/threonine-protein kinase PLK2 (Homo sapiens, UniProt Q9NYY3); test: Inhibition of full length PLK2 (unknown origin)
Serine/threonine-protein kinase PLK2, sequence (Q9NYY3 whole entry): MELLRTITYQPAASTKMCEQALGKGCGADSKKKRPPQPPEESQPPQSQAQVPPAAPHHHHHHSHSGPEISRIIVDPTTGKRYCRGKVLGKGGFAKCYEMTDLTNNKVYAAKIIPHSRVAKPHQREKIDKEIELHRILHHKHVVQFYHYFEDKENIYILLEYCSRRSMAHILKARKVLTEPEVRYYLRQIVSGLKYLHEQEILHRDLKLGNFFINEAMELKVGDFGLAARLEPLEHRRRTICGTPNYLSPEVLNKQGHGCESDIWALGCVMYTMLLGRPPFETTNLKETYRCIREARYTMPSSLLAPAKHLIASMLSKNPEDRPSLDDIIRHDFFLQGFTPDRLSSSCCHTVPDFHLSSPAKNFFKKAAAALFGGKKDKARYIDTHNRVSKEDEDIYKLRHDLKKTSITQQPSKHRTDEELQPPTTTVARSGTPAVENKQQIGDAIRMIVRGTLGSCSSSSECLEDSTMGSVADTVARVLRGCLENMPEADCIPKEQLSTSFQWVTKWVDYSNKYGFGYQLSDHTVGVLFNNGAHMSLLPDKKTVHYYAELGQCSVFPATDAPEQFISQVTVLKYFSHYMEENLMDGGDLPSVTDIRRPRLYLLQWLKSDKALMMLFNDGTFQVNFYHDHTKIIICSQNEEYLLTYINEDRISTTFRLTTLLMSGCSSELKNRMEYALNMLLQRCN

For `c1ccc(CNc2nc(Nc3cccc(N4CCOCC4)c3)nc3[nH]ncc23)cc1`, the IC50 [1] was 2100 nM.

`CN(C)Cc1ccc(/C=C/c2n[nH]c3cc(-c4ccnc(N)n4)ccc23)cc1` gave an IC50 [1] of 11.2 nM, an IC50 [2] of 60 nM and an inhibition in vivo at 20 mg/kg [3] of 80%.

With `COc1c(Nc2cc(C)[nH]n2)nc(Sc2ccc(S(=O)(=O)Cc3cccc([N+](=O)[O-])c3F)cc2F)nc1N1CCCCC1` the Ratio Ki [4] was 2100.

With `COCCOc1ccc2cc1OCC(=O)N(C)CCCN(C)Cc1c[nH]c3ncnc(c13)N2` the IC50 [5] was 5 nM, the IC50 [6] was 5 nM and the IC50 [7] was 5 nM. It also gave an IC50 [8] of 5 nM and an IC50 [9] of 5 nM.

`COc1c(Nc2cc(C)[nH]n2)nc(Sc2ccc(NC(=O)C3CC3)cc2)nc1N1CCN(C)CC1` showed a Ratio Ki [4] of 15 and a Ki [10] of 15 nM.

Work on `CNC(=O)c1ccccc1Nc1nc(Nc2ccc(S(C)(=O)=O)cc2)nc2[nH]ncc12` yielded an IC50 [1] of 27 nM.

In the case of `CC(=O)Nc1nccc(-c2ccc3c(/C=C/c4ccc(CN(C)C)cc4)n[nH]c3c2)n1`, the IC50 [2] is reported as 60 nM and the inhibition in vivo at 20 mg/kg [3] is reported as 80%.

Molecule `Cn1c2ccccc2c2c3c(c4c5ccccc5n(CCC#N)c4c21)CNC3=O` [GO-6976] has an IC50 [11] of over 19000 nM.
